Assay results from patent US20090270476A1, “PHARMACEUTICAL COMPOSITION FOR TREATMENT OR PREVENTION OF NEPHRITIS AND MANUFACTURING METHOD THEREOF” (priority 2005, published 2009).
Entries after “also recorded” stand apart in the source; their conditions may differ.

How the values were obtained:
Format in all cases: in vivo, Wister rats
[1] = system: nephritis model rat; experiment: Effects of orniplabin administration on plasma components in nephritis model rat
Procedure: (§1) 0.6 mL of Anti-rat-glomerular basement membrance rabbit serum was administered into the caudal vein. Next day rabbit γ-globulin (Sigma), and 8 mg/0.2 mL Freund's complete adjuvant (Wako Junyaku) were subcutaneously injected into hinder leg's footpad to cause nephritis (nephritis model rat).
(§2) The urinary proteins were measured three days after the injection of anti-serum and the rats were grouped according to the measurement values. An orniplabin solution equivalent to 5 mg/Kg concentration was intrapenitoneally injected everyday to the orniplabin administration group since then. Nothing was injected to the control group. Rats of respective groups were dissected to remove blood, liver and kidneys 14 days after nephritis was induced, and weights of the removed materials were measured. Further lipid peroxides of a part of blood obtained were measured using a commercial measurement kit (Wako Junyaku). The normal group represents the untreated group, the control group represents—the nephritis-induced group and SMTP group represents the orniplabin-injected group. Student's t-test of significant difference between two groups was carried out as the level significance is 0.05. Tukey's multiple comparison method was used for the testing of significance between three groups. The data associated with the amount of urinary proteins and the weight of organs are treated with the scale per 100 g of body weight as a benchmark.
Further effects of orniplabin administration on plasma components were investigated by measuring a variety of concentrations of plasma component, (Normal group, n=6; control group, n=10; and orniplabin-injected group, n=6) The following plasma components were measured; lactate dehydrogenase (LD; PureAuto S LD), […] amino transferase (AST AutoSera S AST), alanine aminotransferase (ALT: AutoSera S ALT), creatine phosphate kinase (CPK; PureAuto S CK), alkaline phosphatase (ALP; AutoSera S ALP), γ-glutamyl transpeptidase (γ-GTP; PureAuto S γ-GT), total bilirubin (BIL: AutoSera BIL-2), glucose (GLU; PureAuto S GLU-R), triglyceride (TG; AutoSera S TG-N), total cholesterol (T-CHO; Choletest CHO), phospholipid (PL; PureAuto S PL), total protein (TP; AutoSera TP), urea nitrogen (UN; PureAuto S UN), albumin (ALB; AutoSera ALB), calcium (CA; AutoSera CA), inorganic phosphoric acid (IP; Clini mate IP-2), (Daiichi Chemical), creatinine (CRE-S; AccursAuto CRE, Sinotest), acetoacetic acid (ACAC; Ketone Test A Sanwa liquid, Sanwa Science Laboratories), 3-hydroxy butyric acid (OHBA; Ketone Test B Sanwa liquidA Sanwa Science Laboratories), free fafty acids (NEFA; AutoSera R NEFA (Daiichi Chemical) and HDL cholesterol (HDL; Cholest-R N HDL (Daichi Chemical) were used to measure. Further Hitachi Amino acid automatic analyzer 7180 (Hitachi) was used.
The comparison results between the control group and the orniplabin-injected group, and the normal group of which average value is as 1 are shown in FIG. 5 to FIG. 8.

[2] = system: nephritis model rat; experiment: Observation of PAS-stained kidney histologic sections and nephritis score
Procedure: Section samples were prepared from three animals selected according to the variation of urinary protein in respective groups. Periodic acid Schiff (PAS) staining was conducted on the kidney histologic section.
A procedure for PAS staining was; slicing a sampler washing the sample with water after paraffin-removal, soaking the sample in a solution of 1% periodic acid for 10 minutes, and washing again the sample with water; soaking the histologic section prepared in Schiff reagent for 10 to 15 minutes, washing the sample in a staining bat three times for 3 minutes, total for 9 minutes, and washing the sample with water; and then staining the sample with hematoxylin for 1 minute, washing the sample with warm water for 10 minutes, dehydrating and penetrating the sample and then sealing the sample.
Observation of the histologic sample was conducted on renal glomerulus using a microscope with 200× magnifications. The bar in Figs is corresponding to 50 μm.
Fifty (50) glomeruli every three samples of each group were ranked according to damaged levels. The ranks were from normal (rank 1) to the most progressed damage (rank 5) and five grades according to damages were given to provide a score. The average of the scores was decided as the score of the sample (nephritis score).

[3] = system: nephritis model rat; experiment: Effects of orniplabin on urinary protein, lipid peroxide in blood and organomegaly in nephritis model rat
Procedure: Three-week-old male Wister rats (Charles River) were raised for 6 days with pellet diet (CE-2, Nihon Crea) and then raised with the 20% casein diet for 5 days to be subjected to the experiment. The animals were raised at approximately 22° C., with relative humidity […] under lighting from 8:00 to 20:00.
as §1
Since anti-serum was injected, the body weight and feed intake were measured every morning and urinary proteins of 24-hour urine was measured every other day, specifically urine was collected in a flask from 9 AM of the day before to 9 AM of the day and the measurement was carried out using commercial protein measurement kit (Bio-Rad, Protein Assay, Bio-Rad). (Refer to Biosci. Biotechnol. Biochem., 65, 1155-1162 (2001))
as §2

[4] = decrease by induction of nephritis
[5] = orniplabin-injected group vs control group
[6] = renal glomerulus, PAS staining, orniplabin-injected group
[7] = 5 mg/Kg intraperitoneal everyday
[8] = 5 mg/Kg intraperitoneal everyday, 14 days after nephritis induction, weight per 100 g body weight

CC(C)=CCC/C(C)=C/CC[C@@]1(C)Oc2c(c(O)cc3c2CN(CCC[C@@H](C(=O)O)N2Cc4c(cc(O)c5c4O[C@](C)(CC/C=C(\C)CCC=C(C)C)[C@H](O)C5)C2=O)C3=O)C[C@H]1O [orniplabin]
concentration of BIL in plasma [1, 4]: prevented or these concentrations were recovered
concentration of CA in plasma [1, 4]: prevented or these concentrations were recovered
concentration of GLU in plasma [1, 4]: prevented or these concentrations were recovered
concentration of IP in plasma [1, 4]: prevented or these concentrations were recovered
concentration of TP (total proteins) in plasma ([1]; orniplabin-injected group): recovered to the normal level
concentration of ACAC in plasma [1, 5]: lower than that of the control group
concentration of ALB in plasma [1, 5]: almost not different
concentration of ALP in plasma [1, 5]: not significantly different
concentration of ALT in plasma [1, 5]: not significantly different
concentration of AST in plasma [1, 5]: not significantly different
concentration of CRE-S in plasma [1, 5]: almost not different
concentration of HDL in plasma [1, 5]: in decreasing trend
concentration of LD in plasma [1, 5]: not significantly different
concentration of OHBA in plasma [1, 5]: prevented or these concentrations were recovered; also recorded: higher than that of the control group
concentration of OK in plasma [1, 5]: not significantly different
concentration of PL in plasma [1, 5]: in decreasing trend
concentration of T-CHO in plasma [1, 5]: in decreasing trend
concentration of TG in plasma [1, 5]: significantly decreased
concentration of UN in plasma [1, 5]: almost not different
concentration of γ-GTP in plasma [1, 5]: not significantly different
nephritis score ([2]; 50 glomeruli per sample, three samples, rank 1 (normal) to rank 5 (most progressed damage), control group 3.80±0.13): 2.77±0.04
abnormal histologic hypertrophy of proximal convoluted tubule tissue ([2]; PAS staining, orniplabin-injected group): not observed
crescent formation [2, 6]: low level crescent formation
mesangium proliferation [2, 6]: almost no mesangium proliferation
food intake [3, 7]: without affecting
increase of body weight [3, 7]: without affecting
urinary proteins ([3]; 5 mg/Kg intraperitoneal everyday from day 3, 24-hour urine, vs control group): decreased
lipid peroxides in serum ([3]; 5 mg/Kg intraperitoneal everyday, 14 days after nephritis induction, vs control group): decreased
hypertrophy of kidneys [3, 8]: suppressed
hypertrophy of liver [3, 8]: suppressed
